Measured values as given in patent publication US8557580B2, “Methods and compositions for the differentiation of stem cells” (Cellular Dynamics International, Inc., priority 2009, dated 2013).

Test system: Individualized ES cells
Assay: Attachment and survival of individualized ES cells seeded in TeSR medium with or without ROCK inhibitor
Type: cell-based, human
Details: H1152 at 1 uM, fibronectin-coated surfaces
Protocol: Variations in input ES colony size and colony density can lead to substantial variability in performance of any differentiation method. Therefore, the dispersion of ES colonies into individual cells prior to initiating differentiation was investigated. Cultured populations of ES cells were dispersed or individualized with trypsin or TrypLE. Dispersed ES cells were then seeded in TeSR medium, with or without a ROCK inhibitor (H1152, 1 μM). Differentiation procedures described herein were performed with the individualized cultures.
Furthermore, if the seeding density is too low (less than approximately 1×10^4 cells per cm^2), cells detach and lose viability even in the presence of a ROCK inhibitor. If seeded at too high a cell density (greater than 5×10^4 cells per cm^2), cells remain attached, but fail to differentiate into hematoendothelial progenitors. The optimum seeding density between these limits is dependent on the method used for cell expansion, the passage number, and the overall condition of the ES cells.

## Cc1cncc2cccc(S(=O)(=O)N3CCCNC[C@@H]3C)c12 [H1152]
  attachment and survival of individualized ES cells: do not attach and survive without the addition of a survival factor
